# According to US20230192617A1, “AZABICYCLIC(THIO)AMIDES AS FUNGICIDAL COMPOUNDS” (Bayer CropScience Aktiengesellschaft, priority 2020, published 2023):
# Key:
# Botrytis cinerea [1] = experiment: B-11. Botrytis cinerea in vitro cell test; type: cell-based; conditions: 144 h, 20 ppm of active ingredient, 6 days incubation, liquid culture, absorbance, read-out: efficacy (inhibition of fungal growth)
# In short: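 B. cinerea spores were grown in liquid culture with compound (DMSO ≤1% final). Mycelium growth was measured spectrometrically after 6 days, with inhibition taken as absorbance relative to untreated control wells.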
# Alternaria alternata = Alternaria alternata in vitro cell test; type: cell-based; conditions: 120 h, 20 ppm of active ingredient, liquid culture, 5 days incubation, spectrometric measurement of mycelium growth, read-out: efficacy (inhibition of fungal growth)
# In short: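 Spectrometric readout of mycelial growth after 5-day incubation gauged compound effects on spore germination and growth of A. alternata in liquid medium. Compounds were delivered in DMSO at ≤1% final. Absorbance was compared with untreated controls to give inhibition.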
# [2] = test system: Colletotrichum lindemuthianum; experiment: In vivo preventive test on Colletotrichum lindemuthianum (leaf spot on bean); conditions: 168 h, 500 ppm of active ingredient, preventive spray on bean, evaluated 7 days after inoculation, read-out: efficacy
# In short: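 Young bean plants sprayed with compound in DMSO/acetone/Tween 80 diluted in water; solvent-only controls. Inoculated 24 h later with C. lindemuthianum spore suspension, then kept 24 h at 20 °C/100% RH and 6 days at 20 °C/90% RH.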
# Botrytis cinerea [3] = experiment: In vivo preventive test on Botrytis cinerea (grey mould); conditions: 500 ppm of active ingredient, preventive spray on gherkin or cabbage, evaluated 4 to 5 days after inoculation, read-out: efficacy
# In short: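 Preventive spray on cabbage or gherkin seedlings, with compound formulated in DMSO/acetone/Tween 80 and water-diluted, preceded spore inoculation by 24 hours. Cabbage was held 4 to 5 days at 20° C., 100% relative humidity; gherkin 4 to 5 days at 17° C., 90% relative humidity.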
# Pyrenophora teres [4] = experiment: In vivo preventive test on Pyrenophora teres (net blotch on barley); conditions: 240 h, 500 ppm of active ingredient, preventive spray on barley, evaluated 10 days after inoculation, read-out: efficacy
# In short: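 Net blotch spores were sprayed onto barley leaves one day after foliar treatment with water-diluted DMSO/acetone/Tween 80 formulations (solvent-only controls). Plants were kept at 20° C: first 48 hours at 100% relative humidity, then 8 days at 70-80%.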
# [5] = Measurement of Log P values by HPLC on reversed phase columns (EEC directive 79/831 Annex V.A8); type: physicochemical; conditions: reversed phase HPLC column, method [a]: LC-UV, acidic range, 0.1% formic acid in water and acetonitrile as eluent
# In short: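 Log P derived from retention on reversed-phase columns (EEC directive 79/831 Annex V.A8), LC-UV, acetonitrile gradient 10% to 95% against water containing 0.1% formic acid, 0.001 M ammonium acetate, or 0.1% phosphoric acid; several values per method separated by "+".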
# Pyrenophora teres [6] = experiment: B-10. Pyrenophora teres in vitro cell test; type: cell-based; conditions: 144 h, 20 ppm of active ingredient, 6 days incubation, liquid culture, absorbance, read-out: efficacy (inhibition of fungal growth)
# In short: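 Liquid-culture assay on a P. teres spore suspension with compounds added to the medium from DMSO solutions, final DMSO ≤1%. Mycelium growth read spectrometrically after 6 days. Inhibition calculated from absorbance against untreated control wells.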
# Alternaria brassicae = experiment: In vivo preventive test on Alternaria brassicae (leaf spot on radish or cabbage); conditions: 500 ppm of active ingredient, preventive spray on radish or cabbage, evaluated 3 to 4 days after inoculation, read-out: efficacy
# In short: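 Protective spray on young radish or cabbage: actives in water diluted from DMSO/acetone/Tween 80, with solvent-only controls. Leaves were challenged after 24 h with a spore suspension, and plants were held at 100% RH, 20 °C for 3 to 4 days.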
# Sphaerotheca fuliginea = experiment: In vivo preventive test on Sphaerotheca fuliginea (powdery mildew on cucurbits); conditions: Podosphaera fuliginea, 192 h; 500 ppm of active ingredient; preventive spray on gherkin; evaluated 8 days after inoculation; read-out: efficacy
# In short: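 This is a preventive spray test on gherkin seedlings, with compound formulated in DMSO/acetone/Tween 80 in water and solvent-only controls. Spore inoculation followed one day after treatment. Incubation lasted 8 days at 20 °C, 70–80% RH.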
# Septoria tritici = experiment: B-9. Septoria tritici in vitro cell test; type: cell-based; conditions: Zymoseptoria tritici, 168 h; 20 ppm of active ingredient; 7 days incubation; liquid culture, absorbance; read-out: efficacy (inhibition of fungal growth)
# In short: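 Compounds from DMSO stocks (final DMSO ≤1%) were added to liquid medium containing S. tritici spores to test inhibition of germination and mycelial growth. After 7 days, mycelium growth was read spectrometrically and inhibition derived from absorbance versus fungicide-free control wells.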
Structure (SMILES),inhibition at 20 ppm (Botrytis cinerea [1]),inhibition at 20 ppm (Alternaria alternata),pest or weed control at 500 ppm [2],pest or weed control at 500 ppm (Botrytis cinerea [3]),pest or weed control at 500 ppm (Pyrenophora teres [4]),chromatographic logP [5],inhibition at 20 ppm (Pyrenophora teres [6]),pest or weed control at 500 ppm (Alternaria brassicae),pest or weed control at 500 ppm (Sphaerotheca fuliginea),inhibition at 20 ppm (Septoria tritici)
Cc1cc(Cl)ccc1C(F)(F)CNC(=O)c1c(Oc2cccc(C(F)(F)F)c2)nnc2c1COCC2 [I-125],90 to 100%,90 to 100%,80 to 89%,90 to 100%,70 to 79%,3.85,90 to 100%,90 to 100%,90 to 100%,90 to 100%
O=C(NC[C@H](F)c1ccc(Cl)cc1Cl)c1c(Oc2cccc(C(F)(F)F)c2)nnc2ccccc12 (racemic) [I-219],90 to 100%,80 to 89%,90 to 100%,90 to 100%,90 to 100%,4.55,70 to 79%,90 to 100%,90 to 100%,80 to 89%
